Laboratory results: patent US9931679B2, “Method for cleaning hard surfaces” (KIMBERLY-CLARK WORLDWIDE, INC., priority 2013, dated 2018)

Test system: Pseudomonas aeruginosa (ATCC 27853)
Assay: Zone of Inhibition Test (AATCC 147-1998, modified)
Format: cell-based
Settings: diameter of inhibited colony formation; 1.5 by 1.5 cm test material on inoculated agar plate, 48 hours at ambient temperature
Method: Zone of inhibition testing with a variety of gram negative and gram positive bacteria was performed. The test material was brought into contact with a known amount of test microorganisms on an agar plate for 48 hours at ambient temperature. At the end of the contact time the diameter of inhibited colony formation (zone of inhibition) surrounding the test material was measured. […] Referenced method AATCC 147-1998 “Antibacterial Activity Assessment of Textile Materials: Parallel Streak Method” with changes for following Zone of Inhibition procedure (AATCC is “American Association of Textile Chemists and Colorists” located in Research Triangle Park, N.C.): Organisms used in this study were Escherichia coli (ATCC 11229)/Staphylococcus aureus (ATCC 6538)/Pseudomonas aeruginosa (ATCC 27853) (ATCC is “American Type Culture Collection” an organization in Manassas, Va.). Washed cells were diluted in Butterfield's Phosphate buffer to a target titer of approximately 10^8 colony forming units (CFU)/mL. Agar plates for testing were brought to room temperature prior to inoculation. A sterile applicator swab was placed in cell suspension and excess fluid was expressed using the side of the centrifuge tube. […] At the end of the contact time, the diameter of inhibited colony formation (zone of inhibition) surrounding the test material was measured.

## CN[C@H](CC(C)C)C(=O)N[C@H]1C(=O)N[C@@H](CC(N)=O)C(=O)N[C@H]2C(=O)N[C@H]3C(=O)N[C@H](C(=O)N[C@H](C(=O)O)c4cc(O)cc(O)c4-c4cc3ccc4O)[C@H](O)c3ccc(c(Cl)c3)Oc3cc2cc(c3O[C@@H]2O[C@H](CO)[C@@H](O)[C@H](O)[C@H]2O[C@H]2C[C@](C)(N)[C@H](O)[C@H](C)O2)Oc2ccc(cc2Cl)[C@H]1O [Positive Control, vancomycin]
  P. aeroginosa ZOI* (cm): 1.9 cm
